{"source": "patent US6294554A", "about": "(priority 2000, dated 2001)", "data": [{"system": "acetylcholine (ACh)", "experiment": "In vivo microdialysis, acetylcholine (ACh) levels in striatum", "design": "species or system male Sprague-Dawley Rats", "details": "10 mg/kg PO, rat striatum ACh", "description": "Microdialysis Methodology\nSurgery: For these studies, male Sprague-Dawley Rats (250-350 g) were anesthetized with sodium pentobarbital (54 mg/kg, ip) and placed on a Kopf sterotaxic apparatus. The skull was exposed and drilled through to the dura at a point 0.2 mm anterior and 3.0 mm lateral to the bregma. At these coordinates, a guide cannula was positioned at the outer edge of the dura through the drilled opening, lowered perpendicularly to a depth of 2.5 mm, and permanently secured with dental cement to bone screws. Following the surgery, rats were given ampicillin (40 mg/kg, ip) and individually housed in modified cages. A recovery period of approximately 3 to 7 days was allowed before the microdialysis procedure was undertaken.\nMicrodialysis: All of the equipment and instrumentation used to conduct in vivo microdialysis was obtained from Bioanalytical Systems, Inc. (BAS). The microdialysis procedure involved the insertion through the guide cannula of a thin, needle-like perfusable probe (CMA/12, 3 mm×0.5 mm) to a depth of 3 mm in striatum beyond the end of the guide. The probe was connected beforehand with tubing to a microinjection pump (CMA/100). Rats were collared, tethered, and, following probe insertion, were placed in a large, clear, plexiglass bowl with litter material and access to food and water. The probe was perfused at 2, μl/min with Ringer's buffer (NaCl 147 mM; KCl 3.0 mM; CaCl2 1.2 mM; MgCl2 1.0 mM) containing 5.5 mM glucose, 0.2 mM L-ascorbate, and 1 μM neostigmine bromide at pH 7.4). To achieve stable baseline readings, microdialysis was allowed to proceed for 90 minutes prior to the collection of fractions. Fractions (20 μl) were obtained at 10 minute intervals over a 3 hour period using a refrigerated collector (CMA/1 70 or 200). Four to five baseline fractions were collected, following which the drug or combination of drugs to be tested was administered to the animal. Upon completion of the collection, each rat was autopsied to determine accuracy of probe placement.\nAcetylcholine (ACh) analysis: The concentration of ACh in collected samples of microdialysate was determined using HPLC/electrochemical detection. Samples were auto-injected (Waters 712 Refrigerated Sample Processor) onto a polymeric analytical HPLC column (BAS, MF-6150) and eluted with 50 mM Na2 HPO4, pH 8.5. To prevent bacterial growth, Kathon CG reagent (0.005%) (BAS) was included in the mobile phase. Eluent from the analytical column, containing separated ACh and choline, was then immediately passed through an immobilized enzyme reactor cartridge (BAS, MF-6151) coupled to the column outlet. […] Integration and quantification of peaks were accomplished using \"Maxima\" chromatography software (Waters Corporation). […]", "units": {"Microdialysis Maximum % of baseline": "%"}, "values": [{"molecule": "COc1ccc(S(=O)(=O)c2ccc(C3(C4CCN(C5CCN(C(=O)c6cccc(F)c6N)CC5)CC4)OCCO3)cc2)cc1", "note": "[Example 2F]", "Microdialysis Maximum % of baseline": 186}, {"molecule": "COc1ccc(S(=O)(=O)c2ccc(C3(C4CCN(C5CCN(C(=O)c6cccc(C)c6N)CC5)CC4)OCCO3)cc2)cc1", "note": "[Example 2]", "Microdialysis Maximum % of baseline": 194}, {"molecule": "Nc1cc(F)ccc1C(=O)N1CCC(N2CCC(C3(c4ccc(S(=O)(=O)c5cccc(Cl)c5)cc4)OCCO3)CC2)CC1", "note": "[Example 3E]", "Microdialysis Maximum % of baseline": 188}, {"molecule": "Nc1ccccc1C(=O)N1CCC(N2CCC(Cc3ccc(S(=O)(=O)c4cccc(Cl)c4)cc3)CC2)CC1", "note": "[Example 7A]", "Microdialysis Maximum % of baseline": 150}]}]}
